Measured values from patent US7022315B2, “Administration of a thiol-based chemoprotectant compound” (Oregon Health & Science University, priority 2000, dated 2006).
In brackets after ≈: the same amount, converted by molar mass. Where two headings read alike, the source gives them in different places. Marks after values point to notes of the source that are not given here.

How the values were obtained:
rats [1] = experiment: Blood counts after chemotherapy with or without NAC by left carotid aortic infusion (Example 1); assay type: in vivo, rat
Excerpt: The rats were set up for drug administration by pushing a catheter forward past the junction of the external and internal carotid arteries (toward the aorta), and temporarily sealing off the internal carotid for good measure so nothing goes to the brain (left carotid aortic infusion method). In patients where entry is via the femoral artery and the catheter is threaded through the aorta to get to the brain in the first place, one would just pull the catheter back to the aorta to do the NAC infusion.
Rats were treated with carboplatin (200 mg/m^2), melphalan (10 mg/m^2) and etoposide phosphate (100 mg/m^2). In the NAC animals, NAC was infused with the left carotid aortic infusion method immediately after the chemotherapeutic agents, at concentrations ranging from 400–1200 mg/M^2. White blood cells (wbc) and platelets (plt) were counted at baseline before the experiment and at 6 and 9–11 days after treatment with the chemotherapeutic agents. […] Counts are in 1000s per μl blood. […] The lack of white blood cell effect was not repeated as there were significant effects shown below.
The data in table 2 show additional results. […] White blood cells (wbc) and platelets (plt) were counted at baseline before the experiment and at 6 and 9 days after treatment with the chemotherapeutic agents.

LX-1 SCLC cells = experiment: cells; conditions: for EC50: average ± pooled sd of two experiments
Protocol: Cytotoxicity was assessed in cultured LX-1 SCLC cells, 1×10^4 cells per well in 96 well plates, using the WST colorometric assay. […] Chemoprotectant was added at the indicated concentration of N-acetylcysteine shown in FIG. 3A or D-methionine shown in FIG. 3B either alone (n) or immediately following chemotherapy. Data are expressed as the percentage of live cells compared to untreated control samples (without chemotherapy) and each point represents the mean±standard deviation of 4 wells.
The dose/response for rescue from chemotherapy cytotoxicity was evaluated for four different small molecular weight sulfur containing chemoprotectants.
Chemotherapy agents were fixed at the 90% lethal dose for each agent. Each EC50 measurement comprised 6 concentrations with 4 wells per concentration, and each dose response was performed twice for each protectant. EC50 concentrations, in μg/ml are reported as the average±pooled standard deviation for two independent experiments.

[2] = tested on: Caspase-2 activity in B.5 LX-1 cells; experiment: Caspase-2 enzymatic activity (apoptosis); assay type: cell-based
Protocol: FIGS. 7A and 7B show the effect of cytoenhancement and chemoprotection on apoptosis. […] Apoptosis was assessed in cultured LX-1 SCLC cells pretreated for 18 hours with or without 100 μM BSO. The experimental conditions were no addition (open bars), melphalan (10 μg/ml, striped bars) or melphalan (10 μg/ml) plus N-acetylcysteine (1000 μg/ml) (cross hatched bars) for 20 h prior to harvest. Caspase-2 activity is expressed as percentage activity in untreated control samples (mean±standard deviation, n=3). TUNEL staining is expressed as the percentage of cells showing positive staining.
Apoptosis was evaluated by measuring Caspase-2 enzymatic activity and by in situ TUNEL staining. […] The increase in caspase activity was variable between experiments and ranged from 50–100% at 7–8 h to 250–600% at 20–24 h after treatment with melphalan. […] In the experiment shown in FIG. 7B, TUNEL staining after melphalan treatment was positive in 29 of 3643 cells, compared to 7 of 4395 cells in the untreated control, and BSO treatment prior to melphalan increased the positive staining to 800 of 1699 cells. […] In both assays, activity was maximal with low doses of melphalan, or with a 1 hour pulse treatment with the doses used in the cytotoxicity assays.
Samples of the cells used in the caspase and TUNEL assays were also evaluated for membrane permeability by trypan blue exclusion.

rat = tested on: rat
Protocol: FIG. 9 represents tests showing the effect of NAC route of administration on mortality+/−BSO. A Kaplan-Meier product limit analysis was used to evaluate the mortality due to chemoprotection with NAC. Rats were treated with or without BSO (10 mg/kg i.p. b.i.d.×3, black bars) prior to treatment with chemotherapy (Carboplatin 200 mg/m2, etoposide phosphate 100 mg/m2, melphalan 10 mg/m2). Chemoprotection consisted of NAC (1200 mg/m2) or NAC (1000 mg/m2) plus STS (8 g/m2) given either i.v. (n=17 BBSO, n=8+BSO) or by aortic infusion (n=19 BBSO, n=28+BSO).
A dose escalation of NAC was performed in the rat.
The toxicity of NAC was determined when infused for bone marrow protection.

rats [3] = experiment: Protection against chemotherapy-induced myelosuppression, nadir blood counts; assay type: in vivo, rat; conditions: for White Cell Nadir: mean ± SE
Protocol: FIGS. 10A–10D show the results of tests on chemoprotection for chemotherapy-induced myelosuppression. Rats received tri-drug chemotherapy (Carboplatin 200 mg/m2, etoposide phosphate 100 mg/m2, melphalan 10 mg/m2), with (triangles, squares) or without (circles) chemoprotection. Blood counts were determined prior to chemotherapy, at the blood nadir (6 days), and in the recovery phase (9 days after treatment). Chemoprotection was with NAC (1200 mg/kg) administered via aortic infusion 30 min prior to chemotherapy (triangles) or NAC prior to chemotherapy and STS (8 g/m2) immediately after chemotherapy (squares). In FIG. 10B and FIG. 10D animals received BSO (10 mg/kg i.p.×3 d) prior to treatment with chemotherapy. […] Significant difference from the no protectant groups were determined by Wilcoxon/Kruskal-Walliis rank sums tests (*p<0.05, **p<0.01).
Chemoprotection against chemotherapy-induced bone marrow toxicity was determined in BSO treated and untreated animals given i.a. carboplatin, etoposide phosphate, and melphalan. NAC with or without STS was administered either about 30 minutes prior to chemotherapy or immediately after chemotherapy, and was administered either i.v. or by aortic infusion.

[4] = administered intravenously; cited from earlier work
[5] = tested on: patients with moderate renal insufficiency; conditions: approximately 1200 mg per day orally, day before and day of contrast agent; computed tomography; cited from earlier work
[6] = Table 7, no BSO, aortic infusion post chemo
[7] = Table 7, no BSO, i.v. 30 min prior
[8] = Table 7, no BSO, i.v. post chemo
[9] = Table 8, BSO pretreatment, aortic infusion post chemo

For CC(=O)N[C@@H](CS)C(=O)O [NAC, N-acetylcysteine], the “platelet recovery from chemotherapy” value (rats [1]) was “recovered from chemotherapy faster”, the “reduction of the cytotoxicity of each alkylator” value (LX-1 SCLC cells) was 75–90% and the “relative effectiveness among the thiol agents tested” value (LX-1 SCLC cells; on a μg/ml basis) was “most effective”. For the same molecule, the EC50 (LX-1 SCLC cells; read-out: Chemoprotective agent EC50, protection against carboplatin 200 μg/ml (about 90% lethal dose)) was 200 ± 15 µg/mL (≈ 1230 µM), the EC50 (LX-1 SCLC cells; read-out: Chemoprotective agent EC50, protection against cisplatin 15 μg/ml (about 90% lethal dose)) was 151 ± 15 µg/mL (≈ 925 µM) and the EC50 (LX-1 SCLC cells; read-out: Chemoprotective agent EC50, protection against melphalan 20 μg/ml (about 90% lethal dose)) was 74 ± 18 µg/mL (≈ 453 µM). For the same molecule, the “effect on cisplatin- or carboplatin-induced caspase activity” value [2] was “no reduction in caspase enzymatic activity could be detected”, the “effect on melphalan-induced Caspase-2 activity” value ([2]; melphalan 10 μg/ml, N-acetylcysteine 1000 μg/ml) was “reduced” and the mortality and toxicity (rat; 1200 mg/kg by aortic infusion 30 minutes prior to chemotherapy, without BSO, 12 animals) was “no mortality nor any evidence of toxicity”. The bone marrow protection (rat; 140–800 mg/kg i.v. immediately after chemotherapy, n=4) was “no detectable bone marrow protection”, the toxic doses (rat; dose escalation, n=3) was “above 1200 mg/kg” and the “mortality by route of administration” value (rat; i.v. versus aortic infusion, Kaplan-Meier, P=0.0014) was “i.v. administration significantly more toxic than aortic infusion”. The toxicity (rat; rat, in vivo, 1200 mg/kg) was “no toxicity”, the “White Cell Nadir” value (rats [3]; Table 7, no BSO, aortic infusion 30 min prior (1200 mg/kg), N=6) was 69.7 ± 19.3% of baseline and the “Granulocyte Nadir” value (rats [3]; [6]) was 36.6 ± 17.0% of baseline. For the same molecule, the “Platelet Nadir” value (rats [3]; [6]) was 26.8 ± 9.3% of baseline, the “White Cell Nadir” value (rats [3]; Table 7, no BSO, aortic infusion post chemo, N=6) was 25.9 ± 4.9% of baseline and the “Granulocyte Nadir” value (rats [3]; [7]) was 93.5 ± 28.1% of baseline. For the same molecule, the “Platelet Nadir” value (rats [3]; [7]) was 53.3 ± 12.7% of baseline, the “White Cell Nadir” value (rats [3]; Table 7, no BSO, i.v. 30 min prior, N=8) was 51.4 ± 9.4% of baseline and the “Granulocyte Nadir” value (rats [3]; [8]) was 57.9 ± 8.8* percent of baseline. For the same molecule, the “Platelet Nadir” value (rats [3]; [8]) was 36.8 ± 10.4% of baseline, the “White Cell Nadir” value (rats [3]; Table 7, no BSO, i.v. post chemo, N=6) was 46.0 ± 6.5* percent of baseline and the “Platelet Nadir” value (rats [3]; Table 8, BSO pretreatment, aortic infusion 30 min prior) was 23.1 ± 6.2% of baseline. The “White Cell Nadir” value (rats [3]; Table 8, BSO pretreatment, aortic infusion 30 min prior, N=9) was 20.1 ± 2.7% of baseline, the “Granulocyte Nadir” value (rats [3]; [9]) was 19.8 ± 14.7% of baseline and the “Platelet Nadir” value (rats [3]; [9]) was 11.7 ± 3.5% of baseline. The “White Cell Nadir” value (rats [3]; Table 8, BSO pretreatment, aortic infusion post chemo, N=7) was 13.9 ± 4.2% of baseline, the brain levels [4] was under 5% and the “effect on renal function after radiographic contrast agent” value [5] was “prevented the expected decline in renal function”.
